Laboratory results from patent publication EP4166560A1, “TRI-SUBSTITUTED TETRAHYDROFURANS AND USE THEREOF” (Consejo Superior de Investigaciones Cientificas, priority 2021, dated 2023).
Several values for one entry are separate records, joined by “and”; a condition that tells them apart may be missing. Identical values can stand only once. Entries after “also recorded” stand apart in the source; their conditions may differ. Numbered stars: 1 amine (or outer) side, 2 acyl side, 3 side chain; on linkers, the order of the positions; unused ones are H or OH. Bridge positions count the residues as written; N and C are the ends. Square brackets hold non-standard residues; d marks the D form. Peptide text beside a SMILES is read from it. * marks the point of attachment. X1 = CC[C@H](C)[C@@H](N[*:1])[C@@H](O)CC(=O)O[C@H](C(=O)[C@H](C)C(=O)[*:2])C(C)C; NMeY = CN[C@@H](Cc1ccc(O)cc1)C(=O)O; dNMeL = CN[C@H](CC(C)C)C(=O)O; Pyruvoyl = CC(=O)C(=O)*

What was measured:
TGEV [1] = assay: Quantitation of TGEV-induced cell death in ST cells by real-time automated microscopy (Cytotox); assay type: cell-based, transmissible gastroenteritis virus (TGEV); conditions: for activity against TGEV (reversion of TGEV-induced cell death): MOI 0.01, 48 h, result in words; for EC50: read-out: EC50 on TGEV-induced cell death; for bottom plateau, dead cells: TGEV MOI 0.01, 48 h, dose-response fit
SARS-CoV-2 [2] = conditions: White et al. 2021; result in words; cited from earlier work
TGEV [3] = assay: TGEV viral titration by plaque assay in ST cells; assay type: cell-based, transmissible gastroenteritis virus (TGEV)
Procedure: ST cells were inoculated with TGEV at a MOI of 0.01 infectious particles per cell and, after 24 h of incubation under standard culture conditions, the culture medium was subjected to the plaque assay, which determines the number of viral infectious particles present per volume unit (viral titer). A range of SPL-0 concentrations was tested in order to obtain a dose-response curve. The TGEV titer in the harvested medium decreased as the SPL-0 dose increased (Figure 6).

TGEV [4] = assay: TGEV RNA quantitation by RT-qPCR in ST cells; assay type: cell-based, transmissible gastroenteritis virus (TGEV)
Procedure: ST cells were inoculated with TGEV at a MOI of 0.01 infectious particles per cell and, after 24 h of incubation under standard culture conditions, total RNA was extracted and TGEV RNA was quantified by RT-qPCR. A range of SPL-0 concentrations was tested in order to obtain a dose-response curve. The amount of TGEV RNA decreased as the SPL-0 dose increased (Figure 7).

MHV = MHV RNA quantitation by RT-qPCR in CCL9.1 cells; assay type: cell-based, murine hepatitis virus (MHV)
OC43 = OC43 RNA quantitation by RT-qPCR in BHK-21 cells; assay type: cell-based, human coronavirus OC43
SARS-CoV-2 [5] = assay: SARS-CoV-2 infection quantified by immunofluorescence (flow cytometry) in VeroE6 cells; assay type: cell-based
Procedure: (§1) To determine the activity of SPL-0 against SARS-CoV-2, a dose-response assay was performed in the range of 0.2 µM to 50 µM using VeroE6 kidney cells from African green monkey (Cercopithecus aethiops). Cell cultures were inoculated with SARS-CoV-2 at an MOI of 0.01 infectious particles per cell and analyzed after 48 h. The percentage of infected cells was obtained by flow cytometry using a monoclonal antibody against the virus spike protein S as well as a fluorescently labelled secondary antibody (immunofluorescence). The percentage of infected cells decreased as the SPL-0 increased (Figure 8a). […] In addition, for each dose, cell viability assays were performed in the absence of virus. For this, the MTT assay, a standard procedure for determining cell metabolic activity, was used.

SARS-CoV-2 [6] = assay: SARS-CoV-2 infection quantified by immunofluorescence (flow cytometry) in A549 cells; assay type: cell-based
Procedure: as §1, with “The” for “To determine the”, “SARS-CoV-2 was determined in A549 human lung cells, which provide a biologically relevant model, since that lungs are a primary target of SARS-CoV-2. For this,” for “SARS-CoV-2,”, “µM.” for “µM using VeroE6 kidney cells from African green monkey (Cercopithecus aethiops).”, “72” for “48”, “9a).” for “8a).”, “assay” for “assay, a standard procedure for determining cell metabolic activity,”

CVB3 = CVB3 viral titration by plaque assay in HeLa cells; assay type: cell-based, coxsackievirus B3 (CVB3)
Procedure: CVB3 belongs to the picornavirus family. […] Coronaviruses and picornaviruses share certain broad features. Both are plus-strand RNA viruses. However, they are otherwise largely unrelated virus groups. The effect of SPL-0 on CVB3 infection was determined in human HeLa cells. HeLa cells were inoculated with CVB3 at a MOI of 0.01 infectious particles per cell and, after 24 h of incubation under standard culture conditions, the medium was subjected to the plaque assay, which determines the number of viral infectious particles present per volume unit (viral titer). A range of SPL-0 concentrations was to obtain a dose-response curve. The CVB3 titer in the harvested medium decreased as the SPL-0 dose increased (Figure 10). […] Therefore, the antiviral action of SPL-0 extends beyond coronaviruses.

swine testis (ST) cells = conditions: dose range 2-100 µM
VeroE6 kidney cells = conditions: MTT, 0.2 µM to 50 µM
A549 human lung cells = conditions: MTT, 0.2 µM to 50 µM
in vitro [7] = conditions: pig, st cells
in vitro [8] = conditions: african green monkey, veroe6 cells
in vitro [9] = conditions: human, a549 cells
[10] = relative to untreated control, dose-response fit
[11] = Alphacoronavirus 1, ST cells, MOI 0.01, 48 h after viral inoculation

Which “activity against TGEV (reversion of TGEV-induced cell death)” value (from here on “activity against TGEV”) (TGEV [1]; ST cells) does the source give for `CCCCCCCCCC[C@H]1CC([Si](c2ccccc2)(c2ccccc2)c2ccccc2)[C@H](C)O1` (stereo partly drawn) [SPL-1, 2,5-trans-(5-decyl-2-methyltetrahydrofuran-3-yl)triphenylsilane] here?
Its value is “did not revert TGEV-induced cell death; also recorded: Inactive”.

For `CC[C@H](C)[C@H]1NC(=O)[C@@H](NC(=O)[C@@H](CC(C)C)N(C)C(=O)[C@@H]2CCCN2C(=O)C(C)=O)[C@@H](C)OC(=O)[C@H](Cc2ccc(OC)cc2)N(C)C(=O)[C@@H]2CCCN2C(=O)[C@H](CC(C)C)NC(=O)[C@@H](C)C(=O)[C@H](C(C)C)OC(=O)C[C@@H]1O` [Aplidin, plitidepsin] (Pyruvoyl-P[dNMeL]T[X1]LP[NMeY](Me); ester 3-C), which “in vitro activity against SARS-CoV-2” value (SARS-CoV-2 [2]) is on record?
The value was “potent in vitro activity”.

Which EC50 (TGEV [1]; Alphacoronavirus 1, 48 h) does the source give for `C[C@@H]1O[C@@H](Cc2ccccc2)CC1[Si](c1ccccc1)(c1ccccc1)c1ccccc1` (some centres unmarked) [SPL-0] here?
The EC50 was 13.1 µM.

What about the “activity against TGEV” value (TGEV [1]; ST cells) of the same molecule?
The value was “partially reverts TGEV-induced cell death; also recorded: Active”.

And the “bottom plateau, dead cells” value (TGEV [1]; ST cells)?
Its value is 16.1%.

And the EC50 (TGEV [3]; Alphacoronavirus 1, viral titration (plaque assay), ST cells, MOI 0.01, 24 h, read-out: EC50 against TGEV)?
Its EC50 is 15.6 µM.

And the “bottom plateau, estimated viral titer” value (TGEV [3]; [10])?
Its value is 0%.

And the EC50 (TGEV [4]; Alphacoronavirus 1, RT-qPCR, ST cells, MOI 0.01, 24 h, read-out: EC50 against TGEV)?
The EC50 was 4.35 µM.

What about the “bottom plateau, viral RNA” value (TGEV [4]; [10]) of the same molecule?
Its value is 0%.

And the “amount of MHV RNA, % of the amount obtained in control cultures receiving no drug” value (MHV; 20 µM, MOI 0.01, 24 h)?
The value was 17.0 ± 2.4%.

What about the EC50 (MHV; Murine coronavirus, RT-qPCR, inferred from single dose 20 µM, read-out: EC50 against MHV) of the same molecule?
The EC50 was less than 20 µM.

What about the “amount of OC43 RNA, % of the amount obtained in control cultures receiving no drug” value (OC43; 20 µM, MOI 0.01, 4 days) of the same molecule?
Its value is 4.16 ± 0.95%.

And the EC50 (OC43; Betacoronavirus 1, OC43, RT-qPCR, inferred from single dose 20 µM, read-out: EC50 against OC43)?
Its EC50 is less than 20 µM.

And the EC50 (SARS-CoV-2 [5]; Severe acute respiratory syndrome coronavirus 2, Vero C1008, immunofluorescence, MOI 0.01, 48 h, read-out: EC50 against SARS-CoV-2 in VeroE6 cells)?
The EC50 was 27.5 µM.

And the “bottom plateau, infected cells” value (SARS-CoV-2 [5]; VeroE6 cells, dose-response fit)?
The value was 1.6%.

What about the “estimated bottom plateau, infected cells” value (SARS-CoV-2 [6]; A549 cells, dose-response fit) of the same molecule?
The value was -0.37%.

And the EC50 (SARS-CoV-2 [6]; Severe acute respiratory syndrome coronavirus 2, A549, immunofluorescence, MOI 0.01, 72 h, read-out: EC50 against SARS-CoV-2 in A549 cells)?
The EC50 was 12.9 µM.

What about the EC50 (CVB3; Enterovirus B, CVB3, viral titration (plaque assay), HeLa cells, MOI 0.01, 24 h, read-out: EC50 against CVB3) of the same molecule?
The EC50 was 2.95 µM.

What about the “bottom plateau, estimated viral titer” value (CVB3; [10]) of the same molecule?
Its value is 0%.

And the “percentage of dead cells at 48 h” value (swine testis (ST) cells; ST cell cultures not inoculated with TGEV)?
Its value is < 12% and 2.5-12.0%.

And the cytotoxic effects (swine testis (ST) cells; ST cells, no virus, result in words)?
Its cytotoxic effects is “no detectable cytotoxic effects”.

What about the “percentage of viable cells at 48 h” value (VeroE6 kidney cells; uninfected VeroE6 cells) of the same molecule?
The value was > 85% and 85.0-93.3%.

And the cytotoxic effects (VeroE6 kidney cells; VeroE6 cells, result in words)?
Its cytotoxic effects is “no cytotoxic effects”.

What about the cytotoxic effects (A549 human lung cells; A549 cells, result in words) of the same molecule?
The cytotoxic effects was “no cytotoxic effects”.

And the “percentage of viable cells at 48 h” value (A549 human lung cells; uninfected A549 cells)?
The value was > 89% and 89.0-100%.

And the CC50 at 48 h (in vitro [7])?
The CC50 at 48 h was greater than 100 µM.

And the CC50 at 48 h (in vitro [8])?
Its CC50 at 48 h is greater than 50 µM.

What about the CC50 at 48 h (in vitro [9]) of the same molecule?
The CC50 at 48 h was greater than 50 µM.

Which “activity against TGEV” value (TGEV [1]; ST cells) does the source give for `C[C@@H]1O[C@@H](Cc2ccccc2)CC1[Si](C)(C)C` (some centres unmarked) [SPL-5] here?
The value was “did not revert TGEV-induced cell death; also recorded: Inactive”.

What does the source list for `C[C@H]1OC[C@@H](c2ccccc2)[C@H]1[Si](c1ccccc1)(c1ccccc1)c1ccccc1` [SPL-4]?
EC50 (TGEV [1]; [11]): 15.8 µM; activity against TGEV (reversion of TGEV-induced cell death) (TGEV [1]; ST cells): partially reverts TGEV-induced cell death; also recorded: Active; bottom plateau, dead cells (TGEV [1]; ST cells): 11.4%

Which EC50 (TGEV [1]; [11]) does the source give for `CC(C)C[C@H]1C[C@@H]([Si](c2ccccc2)(c2ccccc2)c2ccccc2)[C@H](CCCCl)O1` [SPL-6] here?
Its EC50 is 30.5 µM.

What about the “activity against TGEV” value (TGEV [1]; ST cells) of the same molecule?
Its value is “partially reverts TGEV-induced cell death; also recorded: Active”.

And the “bottom plateau, dead cells” value (TGEV [1]; ST cells)?
Its value is 14.8%.
